Values quoted from earlier work in patent US9138417B2, “Controlled release particles and production method thereof” (priority 2011, dated 2015).

Compound | water solubility
CCCCNC(=O)OCC#CI [IPBC, 3-iodo-2-propynylbutylcarbamate] | 150 ppm
C=C(C)C(=O)O [Methacrylic acid] | 8.9 mass%
CCCC1COC(Cn2cncn2)(c2ccc(Cl)cc2Cl)O1 (stereo not drawn) [Propiconazole, 1-[2-(2,4-dichlorophenyl)-4-n-propyl-1,3-dioxolane-2-ylmethyl]-1H-1,2,4-triazole] | 110 ppm
